ChEMBL document CHEMBL3632589, “Investigation of 7-benzylidenenaltrexone derivatives as a novel structural antitrichomonal lead compound” (2015)
≈ marks a conversion by molar mass, not a printed value.

System: Trichomonas vaginalis
Test: Antitrichomonal activity against Trichomonas vaginalis after 48 hrs by invert microscope analysis
Assay type: functional

`O=C1/C(=C/c2ccccc2)C[C@@]2(O)[C@H]3Cc4ccc(O)c5c4[C@@]2(CCN3CC2CC2)[C@H]1O5` [BNTX] and `O=C1/C(=C/c2ccc(F)cc2)C[C@@]2(O)[C@H]3Cc4ccc(O)c5c4[C@@]2(CCN3CC2CC2)[C@H]1O5` are the same in MIC: 40 µM (≈ 17.2 µg/mL) for the first, 40 µM (≈ 17.9 µg/mL) for the second.

First: Cc1ncc([N+](=O)[O-])n1CCO [METRONIDAZOLE]
Second: C=CCN1C[C@H](C)N([C@H](c2ccc(C(=O)N(CC)CC)cc2)c2cccc(OC)c2)C[C@H]1C [SNC-80]
The MIC of the first is lower: 5 µM (≈ 0.856 µg/mL) for the first, over 320 µM for the second.

Compared with `Oc1ccc2c3c1O[C@H]1c4[nH]c5ccccc5c4C[C@@]4(O)[C@@H](C2)N(CC2CC2)CC[C@]314` [NALTRINDOLE], `COc1ccc(/C=C2\C[C@@]3(O)[C@H]4Cc5ccc(O)c6c5[C@@]3(CCN4CC3CC3)[C@@H](O6)C2=O)cc1` is 4-fold lower in MIC: 80 µM (≈ 33.2 µg/mL) for the first, 20 µM (≈ 9.19 µg/mL) for the second.

`CC(C)[C@H](NC(=O)[C@H](CCC(=O)O)NC(=O)[C@H](Cc1ccccc1)NC(=O)[C@@H](C)NC(=O)[C@@H](N)Cc1ccc(O)cc1)C(=O)N[C@H](C(=O)NCC(N)=O)C(C)C` [DELTORPHIN II] and `CC1(C)SSC(C)(C)[C@@H](NC(=O)[C@@H](N)Cc2ccc(O)cc2)C(=O)NCC(=O)N[C@@H](Cc2ccccc2)C(=O)N[C@H]1C(=O)O` cannot be ordered by MIC: over 320 µM for the first, over 320 µM for the second.

`CN(C)c1ccc(/C=C2\C[C@@]3(O)[C@H]4Cc5ccc(O)c6c5[C@@]3(CCN4CC3CC3)[C@@H](O6)C2=O)cc1` gave an MIC of 20 µM (≈ 9.45 µg/mL).
